{"source": "paper PMC10289903", "about": "(Investigational New Drugs, 2023)", "key": {"clinical": {"experiment": "clinical", "conditions": "in vivo", "procedure": "Pre-dose samples were also collected on day 5 of treatment cycle 5.\nThe slope estimate (β) and corresponding 90% confidence interval (CI) were calculated, where a β estimate of 1 with 90% CI entirely within the bounds of 0.8–1.25 indicated perfect dose proportionality."}, "[1]": {"test_system": "patients with locally advanced or metastatic solid tumors", "excerpt": "This was a Phase Ib, multicenter, open-label, dose-finding clinical trial (NCT02610075). […] Three types of treatment schedules were investigated: cohorts bid 1, bid 2, qd 1.1, qd 2.1 and qd 3.1 received bid or qd treatment on a 5/9 schedule (5 days on treatment, followed by 9 days off) on a 14-day cycle. Cohorts qd 1.2, qd 2.2, and qd 3.2 received treatment on a 5/2 schedule (5 days on followed by 2 days off for 2 of 3 weeks) in a 21-day cycle. Cohorts qd 2.3 and qd 3.3 received treatment on a weekly 5/2 schedule in a 21-day cycle (Table 1). The highest dose level(s) at which less than one-third of evaluable patients (none of 3 patients or 1 of 6 patients) experienced a dose-limiting toxicity (DLT) was declared the MTD.\nDLTs were evaluated during the first 28 days (5/9 schedule) or the first 21 days (5/2 schedule) of treatment."}, "[2]": {"test_system": "platinum-resistant or platinum-refractory recurrent ovarian cancer", "conditions": "adavosertib 175 mg qd days 1, 2, 8, 9, 15, 16 of a 28-day cycle with gemcitabine; 95% CI 3.6–6.4; cited from earlier work"}, "[3]": {"test_system": "recurrent uterine serous carcinoma", "conditions": "300 mg qd days 1–5 and 8–12 of a 21-day cycle, monotherapy, cited from earlier work"}, "[4]": {"test_system": "platinum-resistant ovarian cancer", "conditions": "adavosertib with carboplatin; cited from earlier work"}}, "note": "Where two headings read alike, the source gives them in different places."}
{"smiles": "C=CCn1c(=O)c2cnc(Nc3ccc(N4CCN(C)CC4)cc3)nc2n1-c1cccc(C(C)(C)O)n1", "note": "[adavosertib, Adavosertib]", "values": [{"measurement": "Dose proportionality power model slope β, AUC0–10", "setting": "clinical; human", "value": 1.31}, {"measurement": "Dose proportionality power model slope β, Cmax", "setting": "clinical; human", "value": 1.31}, {"measurement": "half-life", "setting": "clinical; human, po", "value": "300 to 720", "unit": "min"}, {"measurement": "Dose proportionality of systemic exposure", "setting": "clinical", "value": "more than dose proportional"}, {"measurement": "Maximum tolerated dose (MTD)", "setting": "[1]; bid 5/9 schedule (cohort bid 1)", "value": 125, "unit": "mg"}, {"measurement": "DLT nausea, occurrences", "setting": "[1]; human, in vivo", "value": 3, "unit": "n"}, {"measurement": "DLT thrombocytopenia, occurrences", "setting": "[1]; human, in vivo", "value": 3, "unit": "n"}, {"measurement": "Number of DLTs reported", "setting": "[1]; human, in vivo", "value": 12}, {"measurement": "Recommended Phase II dose (RP2D)", "setting": "[1]; human, in vivo, 21 days", "value": 300, "unit": "mg"}, {"measurement": "All other DLTs (dehydration, neutropenia, weight decrease, pneumonia, diarrhea, vomiting), occurrences each", "setting": "[1]; in vivo", "value": "once"}, {"measurement": "Maximum tolerated dose (MTD)", "setting": "[1]; qd 5/2 for 2 of 3 weeks (cohort qd 3.2)", "value": 300, "unit": "mg"}, {"measurement": "Maximum tolerated dose (MTD)", "setting": "[1]; qd 5/9 schedule (cohort qd 3.1)", "value": 300, "unit": "mg"}, {"measurement": "PFS", "setting": "[2]", "value": 4.6, "unit": "months"}, {"measurement": "ORR", "setting": "[3]; 95% CI 15.1–47.5", "value": 29.4, "unit": "%"}, {"measurement": "Median PFS", "setting": "[3]", "value": 6.1, "unit": "months"}, {"measurement": "Response rate", "setting": "[4]", "value": 66.7, "unit": "%"}]}
